Results taken from patent US6287840A (Axys Pharmaceuticals, Inc., priority 1999, dated 2001).
Values belong to the compound of their own block, whether it stands above or below them. Peptide text beside a SMILES is read from it. * marks the point of attachment. X1 = CS(=O)(=O)C=CC(CC(=O)O)N*

Legend:
Cloned cathepsin S = molecular target: T1, Cloned cathepsin S (Homo sapiens, UniProt P25774); experiment: Inhibition of cathepsin S, Z-Val-Val-Arg-AMC fluorescence progress curves; assay type: biochemical; conditions: values marked *, 25° C., pH 6.5; for kinact/KI: read-out: kobs /[I]* (approximate second-order inactivation constant)
T1 construct: made in house
T1 sequence (P25774 115-331): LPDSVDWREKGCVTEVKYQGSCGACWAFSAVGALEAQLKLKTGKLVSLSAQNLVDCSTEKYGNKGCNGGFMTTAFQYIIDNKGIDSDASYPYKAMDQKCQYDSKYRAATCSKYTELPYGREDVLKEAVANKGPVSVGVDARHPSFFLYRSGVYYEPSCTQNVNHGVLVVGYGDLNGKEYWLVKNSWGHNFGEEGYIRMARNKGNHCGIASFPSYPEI
Description: Stock solutions of the various inhibitors (10 mM) were made in DMF; dilutions were made in the same solvent. Cloned cathepsin S, (see Bromme et al., J. Biol. Chem. 268(&): 4832-4838 (1993)) was less than 1 nM in the assay. The assay buffer contained 100 mM phosphate at pH 6.5, 0.01% Triton, 2.5 mM dithiothreitol (DTT), and 2.5 mM ethylenediaminetetraacetic acid (EDTA). The substrate for cathepsin S was 10 μM Z-Val-Val-Arg-AMC (carbobenzyloxyvalinylvalinylarginylaminomethylcoumarin). The assays were initiated at 25° C. by addition of enzyme to 2 mL of assay buffer containing the substrate and the various inhibitors (30-0.001 μM). The increase in fluorescence at 460 nm with excitation at 380 nm was followed with time. Inactivation of cathepsin S was indicated by a downward curve in the increase in fluorescence with time. In the absence of inhibitors, the enzymatic production of free AMC was linear throughout the time course of inactivation examined. Data points were collected over at least 3 half-times of inactivation. The inhibition progress curves were analyzed using non-linear curve fitting software to compute the kobs values. Approximate second-order inactivation constants (kobs /[I]) were calculated for all compounds. For selected inhibitors, plots of 1/[I] vs. 1/kobs yielded the true constants kirr, KI, and kirr /KI, and were corrected for the presence of substrate by dividing KI (app.) by {1+[S]/Km}.

[1] = molecular target: T2, Cathepsin B from human placenta (Homo sapiens, UniProt P07858); experiment: Inhibition of cathepsin B, Z-Arg-Arg-AMC fluorescence progress curves; assay type: biochemical; conditions: values without asterisk; 25° C., pH 6.2
T2 construct: Cathepsin B from human placenta, obtained from Sigma; purchased Sigma; host or cells: human placenta (tissue)
Description: Stock solutions of the various inhibitors (10 mM) were made in DMF; dilutions were made in the same solvent. Cathepsin B from human placenta, obtained from Sigma, was approximately 10 nM in the assay. The assay buffer contained 50 mM phosphate at pH 6.2, 2.5 mM dithiothreitol (DTT), and 2.5 mM ethylenediaminetetraacetic acid (EDTA). The substrate for cathepsin B was 50 μM Z-Arg-Arg-AMC (carbobenzyloxyarginylarginylaminomethylcoumarin). The assays were initiated at 25° C. by addition of enzyme to 2 mL of assay buffer containing the substrate and the various inhibitors (30-0.001 (μM). The increase in fluorescence at 460 nm with excitation at 380 nm was followed with time, and the assay was linear throughout the range observed. Inactivation of cathepsin B was indicated by a downward curve in the increase in fluorescence with time. In the absence of inhibitors, the enzymatic production of free AMC was linear throughout the time course of inactivation examined. Data points were collected over at least 3 half-times of inactivation, and in duplicate. The inhibition progress curves were analyzed using non-linear curve fitting software to compute the kobs values. Approximate second-order inactivation constants (kobs /[I]) were calculated for all compounds. For selected inhibitors, plots of 1/[I] vs. 1/kobs yielded the true constants kirr, KI, and kirr /KI, and were corrected for the presence of substrate by dividing KI (app.) by {1+[S]/Km }.

[2] = tested on: Leishmania donovani amastigote infected mouse peritoneal macrophages; experiment: In vitro antiprotozoal activity, Leishmania donovani; assay type: cell-based; set-up: key to percentage inhibition, L. donovani: the term "T" indicates the molecule to have displayed cytotoxicity
Description: (§1) In this table, the in vitro antiprotozoal activities of the indicated compounds were measured as percentage inhibition of Leishmania donovani amastigote infecteda mouse peritoneal macrophages, Trypanosoma cruzi amastigote infected macrophages, and Trypanosoma brucei extracellular bloodstream forms.

[3] = tested on: Trypanosoma cruzi amastigote infected macrophages; experiment: In vitro antiprotozoal activity, Trypanosoma cruzi; assay type: cell-based
Description: as §1

[4] = tested on: Trypanosoma brucei extracellular bloodstream forms; experiment: In vitro antiprotozoal activity, Trypanosoma brucei; assay type: cell-based
Description: as §1

cruzain, from T. cruzi = cruzain, from T. cruzi (Trypanosoma cruzi, UniProt P25779); experiment: Inhibition of cruzain, as for cathepsin L; assay type: biochemical; conditions: values marked *
Sequence of cruzain, from T. cruzi (P25779 123-337 limits assumed): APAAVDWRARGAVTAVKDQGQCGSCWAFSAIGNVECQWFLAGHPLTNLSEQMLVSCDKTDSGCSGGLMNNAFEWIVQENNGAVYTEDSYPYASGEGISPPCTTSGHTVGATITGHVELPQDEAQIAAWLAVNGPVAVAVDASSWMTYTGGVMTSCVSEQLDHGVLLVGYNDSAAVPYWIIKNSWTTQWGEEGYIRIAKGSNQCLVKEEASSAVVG
Description: (§2) Stock solutions of the various inhibitors (10 mM) were made in DMF; dilutions were made in the same solvent. Cathepsin L from rat liver, (see Mason et al., Biochem. J. 226:233-241 (1985)) was approximately 1 nM in the assay. The assay buffer contained 50 mM phosphate at pH 6:2, 2.5 mM dithiothreitol (DTT), and 2.5 mM ethylenediaminetetraacetic acid (EDTA). The substrate for cathepsin L was 5 μM Z-Phe-Arg-AMC (carbobenzyloxyphenylalanylarginylaminomethylcoumarin). The assays were initiated at 25° C. by addition of enzyme to 2 mL of assay buffer containing the substrate and the various inhibitors (30-0.001 μM). The increase in fluorescence at 460 nm with excitation at 380 nm was followed with time. Inactivation of cathepsin L was indicated by a downward curve in the increase in fluorescence with time. In the absence of inhibitors, the enzymatic production of free AMC was linear throughout the time course of inactivation examined. Data points were collected over at least 3 half-times of inactivation. The inhibition progress curves were analyzed using non-linear curve fitting software to compute the kobs values. Approximate second-order inactivation constants (kobs /[I]) were calculated for all compounds. For selected inhibitors, plots of 1/[I] vs. 1/kobs yielded the true constants kirr, KI, and kirr/KI and were corrected for the presence of substrate by dividing KI (app.) by (1+[S]/Km).
Inhibition of cruzain, from T. cruzi, (see Eakin et at., J. Biol. Chem. 268(9): 6115-6118 (1993)) proceeded exactly as for cathepsin L, outlined above, using an enzyme concentration of 1 nM.

[5] = molecular target: T3, Cathepsin L from rat liver (Rattus norvegicus, UniProt P07154); experiment: Inhibition of cathepsin L, Z-Phe-Arg-AMC fluorescence progress curves; assay type: biochemical; conditions: values marked *; 25° C., pH 6.2
T3 construct: Cathepsin L from rat liver; from tissue; host or cells: rat liver
T3 sequence (P07154 114-288 limits assumed): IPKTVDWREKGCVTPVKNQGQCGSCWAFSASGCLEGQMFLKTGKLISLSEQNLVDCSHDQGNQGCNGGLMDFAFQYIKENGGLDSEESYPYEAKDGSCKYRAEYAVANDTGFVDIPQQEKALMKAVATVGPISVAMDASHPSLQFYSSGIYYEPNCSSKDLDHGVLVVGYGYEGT
T3 sequence (P07154 291-334 limits assumed): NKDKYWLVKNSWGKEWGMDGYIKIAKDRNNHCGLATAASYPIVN
Description: as §2

- kobs /[I]* (approximate second-order inactivation constant) (Cloned cathepsin S): 3,000,000 M^-1 sec^-1
Compound: CC(C)C[C@H](NC(=O)OCc1ccccc1)C(=O)N[C@H](/C=C/S(=O)(=O)c1ccccc1)Cc1ccccc1

- kinact/KI (Cloned cathepsin S): 100000 M⁻¹ s⁻¹
Compound: CC(=O)N[C@@H](CC(C)C)C(=O)N[C@@H](CC(C)C)C(=O)N[C@H](/C=C/S(=O)(=O)c1ccccc1)Cc1ccc(O)cc1 [Ac-Leu-Leu-TyrVSPh, (S)-(E)-3-(acetylleucylleucyl)amino-4-(4-hydroxyphenyl)-1-phenylsulfonyl-1-butene]

- k/KI (kirr/KI) [1]: 0 M⁻¹ s⁻¹
Compound: CC(=O)NC(Cc1ccc(O)cc1)C(=O)NC(Cc1ccc(O)cc1)C(=O)NC(C(=O)NC(C)C(=O)NC(C=CS(C)(=O)=O)CC(=O)O)C(C)C (stereo not drawn) [Ac-Tyr-Tyr-Val-Ala-AspVSMe] (Ac-YYVA-X1; configuration not given here)

- kinact/KI (Cloned cathepsin S): 920000 M⁻¹ s⁻¹
Compound: CN(C)S(=O)(=O)N[C@@H](Cc1ccccc1)C(=O)N[C@H](/C=C/S(=O)(=O)c1ccccc1)CCc1ccccc1 [DimSam-Phe-HphVSPh, (S)-(E)-3-(dimethylsulfamoylphenylalanyl)amino-5-phenyl-1-phenylsulfonyl-1-pentene]

Compound: Cl.NC(C=CS(=O)(=O)c1ccccc1)CCCCNC(=O)OCc1ccccc1 (centres unmarked) [HCl.(e-Z)LysVSPh]
- percentage inhibition, L. donovani ([2]; 3 uM): 100%
- percentage inhibition, L. donovani ([2]; 10 uM): 100%
- percentage inhibition, L. donovani ([2]; 30 uM): T
- percentage inhibition, L. donovani ([2]; 90 uM): T
- ED50, T. cruzi [3]: 18.34 µM
- percentage inhibition, T. cruzi ([3]; 3 uM): 2.7%
- percentage inhibition, T. cruzi ([3]; 10 uM): 10.6%
- percentage inhibition, T. cruzi ([3]; 30 uM): 82.8%
- percentage inhibition, T. cruzi ([3]; 90 uM): 97.8%
- ED50, T. brucei [4]: 8 µM
- percentage inhibition, T. brucei ([4]; 1 uM): 7.6%
- percentage inhibition, T. brucei ([4]; 3 uM): 13%
- percentage inhibition, T. brucei ([4]; 10 uM): 39.3%
- percentage inhibition, T. brucei ([4]; 30 uM): 100%
- percentage inhibition, T. brucei ([4]; 90 uM): 100%

- kobs /[I]* (approximate second-order inactivation constant) (cruzain, from T. cruzi): 14,600 M^-1 sec^-1
- kobs /[I]* (approximate second-order inactivation constant) (Cloned cathepsin S): 35,000 M^-1 sec^-1
Compound: Cl.NC(Cc1ccccc1)C(=O)NC(C=CS(=O)(=O)c1ccccc1)CCc1ccccc1 (centres unmarked) [HCl.Phe-HphVSPh]

Compound: CS(=O)(=O)/C=C/[C@@H](N)Cc1ccccc1.Cl [HCl.PheVSMe]
- percentage inhibition, L. donovani ([2]; 3 uM): 100%
- percentage inhibition, L. donovani ([2]; 10 uM): 100%
- percentage inhibition, L. donovani ([2]; 30 uM): 100%
- percentage inhibition, L. donovani ([2]; 90 uM): 100%
- percentage inhibition, T. cruzi ([3]; 3 uM): 0%
- percentage inhibition, T. cruzi ([3]; 10 uM): 0%
- percentage inhibition, T. cruzi ([3]; 30 uM): 0%
- percentage inhibition, T. cruzi ([3]; 90 uM): 17.3%
- percentage inhibition, T. brucei ([4]; 3 uM): 0%
- percentage inhibition, T. brucei ([4]; 10 uM): 0%
- percentage inhibition, T. brucei ([4]; 30 uM): 0%
- percentage inhibition, T. brucei ([4]; 90 uM): 0%

- kobs /[I]* (approximate second-order inactivation constant) [5]: 4,500 M^-1 sec^-1
- kobs /[I]* (approximate second-order inactivation constant) (Cloned cathepsin S): 68,500 M^-1 sec^-1
Compound: O=C(N[C@@H](/C=C/S(=O)(=O)c1ccccc1)CCc1ccccc1)C(Cc1ccccc1)NC(=O)N1CCOCC1 (stereo partly drawn) [Mu-Phe-D-HphVSPh, (R)-(E)-3-(4-morpholinecarbonylphenylalanyl)amino-5-phenyl-1-phenylsulfonyl-1-pentene]
